# Literature values as cited in patent publication US20060177392A1, “Oil-based composition for acne” (priority 2005, published 2006).
# Experiments:
# [1] = typical dose 0.5 to 2 mg/kg body weight per 24 hours; human fetal abnormalities and spontaneous abortions
# [2] = taken internally
compound,measurement,setting,value
"CC1=C(/C=C/C(C)=C/C=C/C(C)=C\C(=O)O)C(C)(C)CCC1 [Accutane, 13-cis-retinoic acid]",Teratogenicity,[1],often teratogenic
Vitamin A,"Single megadose that can induce brain swelling, headache, drowsiness, vomiting, and/or death",[2]; single megadose,"1,500,000 IU"
same,Sustained dose that may be toxic,[2]; sustained doses,"over 50,000 IU"
